Measured values as given in patent publication US5023376A, “Reduction of nitrosamine formation” (Interox America, priority 1989, dated 1991).
“Also recorded” adds a separate entry of the source. Where a name gives a salt, the structure may show the parent alone. Read-outs that look alike come from different tables or passages of the source.

Tests used:
[1] = oxidation of dodecyldimethylamine with hydrogen peroxide under transition metal stress conditions in presence of phosphonate or other chelating agent (residual peroxide/amine, amine oxide yield, amine conversion)
Source text: The residual amounts of peroxide and amine are the measured amounts in the mixture, the A O yield indicated is the weight percentage of measured amine oxide based on the amount of amine employed, assuming a purity of 97.5% and the amine conversion is based on the weight of the amine material (as 100%) that has been consumed.

[2] = residual nitrosamine content measured by gas chromatography - thermal energy analyzer; conditions: for Residual Nitrosamines: Table 2, sum of dimethylnitrosamine and dodecylmethylnitrosamine, mole ratio about 4.3:1; for Residual Nitrosamine: Table 3
Source text: In addition to determining the effect of the phosphonates upon the extent of the reaction, the residual content of nitrosamines was independently measured by gas chromatography - thermal energy analyzer, and Table 2 below gives the sum of the two principal nitrosamines, namely dimethylnitrosamine and dodecylmethylnitrosamine.

[3] = Table 1, amine oxide, based on amine employed, assuming purity of 97.5%, stress conditions, mole ratio about 4.3:1
[4] = Table 1, mole ratio ATMP:metals 7.3:1 (C 5)
[5] = Table 1, stress conditions, 2.5 ppm metals, […]
[6] = Table 1, weight of amine consumed, stress conditions, mole ratio about 4.3:1
[7] = Table 3, chelating agent:metals mole ratio 4.3:1
[8] = chelating agent:metals mole ratio 4.3:1
[9] = Table 1, stress conditions, 2.5 ppm metals, phosphonate:metal mole ratio about 4.3:1
[10] = Table 1, phosphonate pre-mixed with the hydrogen peroxide solution (Ex 3)
[11] = Table 3, lower mole ratio 2.15:1 (Ex 10)

SMILES | A O yield [1, 3] [wt %] | Amine Conversion [1, 6] [wt %] | Residual Nitrosamines [2] [ppb] | A O yield [1, 7] [wt %] | Amine Conversion [1, 7] [wt %] | Peroxide Consumed [1, 7] [wt %] | Residual Nitrosamine [2, 8] [ppb] | Residual Amine [1, 9] [wt %] | Residual Peroxide [1, 9] [wt %] | also measured
O=P(O)(O)CN(CP(=O)(O)O)CP(=O)(O)O [ATMP, aminotris(methylenephosphonic acid) sodium salt] | 38.3 | 40.5 | 11036 |  |  |  |  |  |  | A O yield [1, 4]: 63.1 wt %; Amine Conversion [1, 4]: 65.7 wt %; Residual Amine [1, 4]: 9.9 wt %; Residual Peroxide [1, 4]: 0.02 wt %; Residual Amine [1, 5]: 17.3 wt %; Residual Peroxide [1, 5]: 0.02 wt %; effectiveness in the amine oxidation process (in words) ([1]; stress conditions, listed as C4, sodium salt): less amine conversion and a lower yield of amine oxide than the corresponding reaction to which no phosphonates had been introduced; effectiveness in the amine oxidation process (in words) ([1]; stress conditions, listed as C5, sodium salt): rather better than C4, but still very markedly worse than the results for Ex2/3, Ex6 or Ex7; effectiveness in the amine oxidation process (in words) ([1]; stress conditions, sodium salt): did not perform with similar effectiveness; effect on residual nitrosamine content (in words) ([2]; text conclusion from Table 2): significantly worse
O=C(O)CN(CC(=O)O)C1CCCCC1N(CC(=O)O)CC(=O)O (stereo not shown) [CDTA, cyclohexane-1,2-diaminotetra(acetic acid), sodium salt] |  |  |  | 34.4 | 68.1 | 99.9 | 3279 |  |  | 
O=P(O)(O)CN(CP(=O)(O)O)C1CCCCC1N(CP(=O)(O)O)CP(=O)(O)O (stereo not shown) [CDTMP, cyclohexanediaminotetra(methylenephosphonic acid), sodium salt] | 97.7 | 97.3 | 1950 |  |  |  |  | 0.8 | 0.67 | effectiveness in the amine oxidation process (in words) ([1]; stress conditions): very great amelioration of the problem
O=C(O)CN(CCN(CC(=O)O)CC(=O)O)CCN(CC(=O)O)CC(=O)O [DTPA, diethylenetriaminepenta(acetic acid), sodium salt] |  |  |  | 83.9 | 83.2 | 99.6 | 7017 |  |  | 
O=P(O)(O)CN(CCN(CP(=O)(O)O)CP(=O)(O)O)CCN(CP(=O)(O)O)CP(=O)(O)O [DTPMP, diethylenetriaminepenta(methylenephosphonic acid), sodium salt] | 96.2 | 94.4 | 251 |  |  |  |  | 1.6 | 0.72 | A O yield [1, 10]: 97.2 wt %; Amine Conversion [1, 10]: 96.7 wt %; Residual Amine [1, 10]: 0.9 wt %; Residual Peroxide [1, 10]: 0.66 wt %; A O yield [1, 11]: 98.8 wt %; Amine Conversion [1, 11]: 98.3 wt %; Peroxide Consumed [1, 11]: 83.1 wt %; effectiveness in the amine oxidation process (in words) ([1]; stress conditions, sodium salt): very great amelioration of the problem; also recorded: equally as good, or possibly even slightly better when introduced via the hydrogen peroxide solution; Residual Nitrosamine ([2]; lower mole ratio 2.15:1 (Ex 10)): 1031 ppb
O=P(O)(O)CN(CCN(CP(=O)(O)O)CP(=O)(O)O)CCN(CP(=O)(O)O)CP(=O)(O)O [DTPMPA] |  |  |  | 96.5 | 96.1 | 86.4 | 1591 |  |  | 
O=C([O-])CN(CCN(CC(=O)[O-])CC(=O)[O-])CC(=O)[O-].[Na+].[Na+].[Na+].[Na+] [EDTA, ethylenediaminetetra(acetic acid), sodium salt] |  |  |  |  |  |  | 3421 |  |  | A O yield [1]: 35.3 wt %; Amine Conversion [1]: 54.8 wt %; Peroxide Consumed [1]: 99.9 wt %
O=P(O)(O)CN1CCN(CP(=O)(O)O)CCN(CP(=O)(O)O)CCN(CP(=O)(O)O)CCN(CP(=O)(O)O)CCN(CP(=O)(O)O)CC1 [HCMP, hexacyclenehexa(methylenephosphonic acid)] | 97.1 | 96.8 | 1056 |  |  |  |  | 0.9 | 0.76 | effectiveness in the amine oxidation process (in words) ([1]; stress conditions): very great amelioration of the problem
O=P(O)(O)CN(CCCCCCN(CP(=O)(O)O)CP(=O)(O)O)CP(=O)(O)O [HDTMP, hexamethylenediaminetetra(methylene phosphonic acid)] |  |  |  | 37.0 | 58.7 | 99.6 | 3834 |  |  | effectiveness in the amine oxidation process (in words) ([1]; stress conditions, listed as C11): singularly ineffective; effectiveness in the amine oxidation process (in words) ([1]; stress conditions, listed as hexamethylenediaminotetra(methylenephosphonic acid)): significantly inferior
CC(O)(P(=O)(O)O)P(=O)(O)O [HEDP, hydroxyethylidene-1,1-diphosphonic acid] |  |  |  | 32.1 | 48.2 | 99.6 | 10024 |  |  | effectiveness in the amine oxidation process (in words) ([1]; stress conditions, listed as (hydroxyethylidene)diphosphonic acid): significantly inferior; effectiveness in the amine oxidation process (in words) ([1]; stress conditions, listed as C12): ineffective
